The text below walks through data of patent US7205298B2, “Substituted triazine kinase inhibitors” (Janssen Pharmaceutica N.V., priority 2002, dated 2007).

Values joined by “and” are separate entries in the source; they are usually repeats but may differ in a detail not shown here. Equal values may be shown once.

In test [1] the target is T1, VEGF-R (rat VEGF-R2 kinase domain) (Rattus norvegicus, UniProt O08775).
T1 construct: 6xHis (polyhistidine) (N)
Put plainly: VEGF-R Screening Assay. The format is biochemical. As to the method: A kinase reaction mixture was prepared containing 50 mM Tris-HCl pH=8, 10 mM MgCl2, 0.1 mM Na3PO4, 1 mM DTT, 10 μM ATP, 0.025 μM biotinylated peptide substrate (also referred to herein as PLC-1 biotinylated peptide substrate and PDGF receptor substrate, sequence provided in the peptide substrate table) and 0.8 μCuries per well ^33P-γ-ATP (2000–3000 Ci/mmol). 70 μL of the kinase reaction mixture was dispensed into the well of a streptavidin coated FlashPlate™ (Cat. # SMP103, NEN, Boston, Mass.). Then 1 μL of test compound stock in 100% DMSO was added to the wells resulting in a final concentration of 1% DMSO in the reaction with a 100 μL final reaction volume. Next, soluble rat VEGF tyrosine kinase containing an N-terminal 6XHIS tag was diluted in 50 mM Tris-HCl pH=8.0, 0.1% BSA at a concentration of 5 ng per μL and 30 μL (150 ng enzyme per test well) was added to each well to initiate the reaction. The reaction was incubated for one hour at 30° C. At the end of the 1-hour incubation, the reaction was terminated by aspirating the reaction mixture from the plate and washing the wells twice with PBS containing 100 mM EDTA. The PLC1 biotinylated peptide substrate became immobilized on the Flashplate™ and the incorporation of ^33P-γ-ATP was measured by reading the plate on a scintillation counter. Inhibition of the enzymatic activity of the VEGF-R was measured by observing a reduced amount of ^33P-γ-ATP incorporated into the immobilized peptide.
Assays to test compound inhibition of other kinases were preformed using methods that measure the amount of phosphorylation of a biotinylated peptide substrate. Biotinylated peptide substrates were selected from the literature as appropriate for the enzyme being evaluated. The general procedure used to assay for kinase activity is as follows: a kinase reaction mix was prepared in 50 mM Tris-HCl pH=8, 10 mM MgCl2, 0.1 mM Na3VO4, 1 mM DTT, 10 μM ATP, 0.25–1 μM biotinylated peptide substrate, 0.2–0.8 μCuries per well ^33P-γ-ATP (2000–3000 Ci/mmol). Assay conditions vary slightly for each protein kinase, for example, insulin receptor kinase requires 10 mM MnCl2 for activity and Calmodulin-dependent protein kinase requires calmodulin and 2 mM CaCl2. The reaction mixture was dispensed into the wells of a streptavidin coated Flashplate and 1 μL test compound in 100% DMSO was added to a 100 μL reaction volume resulting in a final concentration of 1% DMSO in the reaction. Enzyme was diluted in 50 mM Tris-HCl pH=8.0, 0.1% BSA and added to each well. The reaction was incubated for one hour at 30° C. in the presence of a test compound. After one hour the reaction mix was aspirated from the plate and the plate was washed with PBS containing 100 mM EDTA. The plate was read on a scintillation counter to determine ^33P-γ-ATP incorporated into the immobilized peptide substrate. Test compounds were assayed in duplicate at 8 concentrations (100 μM, 10 μM, 1 μM, 100 nM, 10 nM, 1 nM, 100 pM, 10 pM). A maximum and minimum signal for the assay was determined on each plate. […] Known inhibitor compounds appropriate for the kinase being assayed were also included on each plate.
The form of VEGF-R (vascular endothelial growth factor receptor-2) used was a fusion protein containing a polyhistidine tag at the N-terminus followed by amino acids 786–1343 of the rat VEGF-R2 kinase domain (GenBank Accession #U93306). The form of CDK1 (cyclin dependent kinase 1) used was isolated from insect cells expressing both the human CDK1 catalytic subunit and its positive regulatory subunit cyclin B (CDK1:cyclin B protein, New England Biolabs, Beverly, Mass., Cat. #6020). The form of CDK4 (cyclin dependent kinase 4) used contains amino acids 769 to 921 of the mouse […] protein found in the GST-retinoblastoma protein construct (Santa Cruz Biotechnology, Santa Cruz, Calif.; Cat. #SC-4112). The form of EGF-R1 (epidermal growth factor receptor 1) used was purified from human A431 cell membranes (Sigma, St. Louis, Mo., Cat.# E3641). […]

For test [2], the system named is HeLa cervical adenocarcinoma. Put plainly: Inhibition of cell proliferation, 14C-thymidine incorporation, HeLa. The conditions noted are these: Homo sapiens. The format is cell-based. As to the method:
(§1) The ability of a test compound to inhibit the proliferation of cell growth was determined by measuring incorporation of ^14C-labelled thymidine into newly synthesized DNA within the cells. This method was used on cell lines derived from carcinomas originating from several tissues such as HeLa cervical adenocarcinoma (American Type Culture Collection (ATCC), Virginia, Cat. #CCL-2), HCT-116 colon carcinoma (CCL-247), MDA-MB-231 (Xenogen Corp.), PC-3 prostate adenocarcinoma (ATCC CRL-1435) and A375 malignant melanoma (ATCC CRL-1619).
(§2) Using this method, the effect of a compound on cell growth of cells with many different phenotypes can be determined. Cells were trypsinized and counted and 3000–8000 cells were added to each well of a 96-well CytoStar tissue culture treated scintillating microplate (Amersham #RPNQ0160) in complete medium in a volume of 100 μl. Cells were incubated for 24 hours in complete medium at 37° C. in an atmosphere containing 5% CO2. 1 μL of test compound in 100% DMSO was then added to the wells of the plate. DMSO only was added to control wells. Cells were incubated for 24 more hours in complete medium at 37° C. in an atmosphere containing 5% CO2. […] The degree of methyl ^14C-thymidine incorporation was quantified on a Packard Top Count.

Another test deals with HCT-116 colon carcinoma. The experiment in a line: Inhibition of cell proliferation, 14C-thymidine incorporation, HCT-116. The format is cell-based. Conditions: Homo sapiens. As to the method: as §1, §2

T1 sequence (O08775 786-1343): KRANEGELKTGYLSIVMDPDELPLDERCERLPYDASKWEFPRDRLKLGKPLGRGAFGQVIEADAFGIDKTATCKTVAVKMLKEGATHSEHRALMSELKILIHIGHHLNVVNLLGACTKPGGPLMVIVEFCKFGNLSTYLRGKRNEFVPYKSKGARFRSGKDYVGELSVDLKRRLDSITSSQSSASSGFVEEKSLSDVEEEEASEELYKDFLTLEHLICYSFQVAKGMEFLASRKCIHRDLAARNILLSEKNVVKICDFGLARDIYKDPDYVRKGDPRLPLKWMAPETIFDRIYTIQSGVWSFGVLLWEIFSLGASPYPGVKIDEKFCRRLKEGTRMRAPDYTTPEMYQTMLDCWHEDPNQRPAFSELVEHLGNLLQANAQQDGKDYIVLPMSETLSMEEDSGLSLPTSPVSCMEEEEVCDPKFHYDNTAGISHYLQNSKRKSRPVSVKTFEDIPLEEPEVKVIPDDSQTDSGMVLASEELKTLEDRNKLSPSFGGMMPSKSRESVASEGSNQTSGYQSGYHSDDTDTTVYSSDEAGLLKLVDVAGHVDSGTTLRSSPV

As to `OCCCNc1cc(-c2ncnc(Nc3cccc(Cl)c3)n2)ccn1` [Compound 2, 3-((4-(4-((3-chlorophenyl)amino)-1,3,5-triazin-2-yl)-2-pyridinyl)amino)-1-propanol], the half-inhibitory concentration (IC50) in test [1] was 2560 nM and 2570 nM; in test [2], 105 nM; in the test on HCT-116 colon carcinoma, 48 nM.
`OCCCNc1cncc(-c2ncnc(Nc3cccc(Cl)c3)n2)c1` [Compound 1, 3-((5-(4-((3-chlorophenyl)amino)-1,3,5-triazin-2-yl)-3-pyridinyl)amino)-1-propanol]: the IC50 was 2560 nM in test [1], 298 nM in test [2] and 278 nM in the test on HCT-116 colon carcinoma.
